The source of these data is patent US11510983B2 (priority 2013, dated 2022).

For data set [1] the following is noted: pig, in vivo.
For data set [2], the system named is A/California/7/2009 (H1N1). Also noted: species or system BALB/c mice. The conditions noted are these: mouse, in vivo.
The subject of data set [3] is A/California/7/2009 (H1N1). Also noted: species or system BALB/c mice. The conditions noted are these: mouse, in vivo. The source holds these as a separate data set.
Details of data set [4]: species or system mice. The conditions noted are these: mouse, in vivo.

For the molecule `CC(C)Cn1cnc2c(N)nc3ccccc3c21` [IMIQ, 1-(2-Methylpropyl)-1H-imidazo[4,5-c]quinolin-4-amine], the “skin response at the injection site” value in data set [1] is “Diminished skin irritation”. Also, in data set [2], the “elevation of IgG2a production” value is recorded as 5 fold and the “type of immune response by IgG2a/IgG1 ratio” value is given as “Th1-biased immune response”. For the same molecule, the “time after which HAI titer started to decline to levels of non-adjuvanted flu vaccine” value in data set [3] is on record as over 3 months.

As to OVA: protein model antigen ovalbumin, in data set [4], the “raise of specific antibody titers in the presence vs. absence of laser pre-treatment” value is recorded as 6 folds.
